{
  "source": "patent US20200316051A1",
  "about": "“TLR7/8 ANTAGONISTS AND USES THEREOF” (Merck Patent GmbH, priority 2017, published 2020)",
  "key": {"TLR7/8 [1]": {"system": "TLR7/8", "assay": "Cytokine production in human PBMCs stimulated with TLR7 agonist, let7c miRNA or let7/DOTAP in the presence of TLR7/8 antagonist", "assay_type": "cell-based", "protocol": "Human PBMCs were treated with TLR7 agonist (TLR7), let7c miRNA or transfected with let7c miRNA (let7/DOTAP) in the presence of TLR7/8 antagonist (Compound 467 in Table 1 above). Levels of IL-6 (FIG. 3) and IFNα (FIG. 4) were measured following overnight incubation."}, "TLR7/8 [2]": {"system": "TLR7/8", "assay": "Activation of human PBMCs by LL37 alone or in complex with GU trimer or let-7c miRNA, with or without TLR7/8 inhibitor", "assay_type": "cell-based", "protocol": "Binding of LL37 to miRNA enables delivery of miRNA to human PBMCs and stimulate TLR7/8-mediated production of cytokines. Human recombinant LL37 protein was used alone, or in a complex with GU trimer or let-7c miRNA to activate human PBMCs in the presence or absence of TLR7/8 inhibitor (Compound 467 in Table 1 above). Levels of IL-6 (FIG. 5) and IFNα (FIG. 6) were measured following overnight incubation."}},
  "data": [
    {"smiles": "C[C@@H]1CN(c2ccc(C#N)c3nccnc23)C[C@H](CN2CCC(N3CCOCC3)CC2)O1", "note": "[Compound 467]", "values": [
      {"measurement": "levels of IL-6 induced by let-7 miRNA", "setting": "TLR7/8 [1]; overnight incubation (FIG. 3)", "result": "blocks production of cytokines"},
      {"measurement": "levels of IFNα induced by let-7 miRNA", "setting": "TLR7/8 [1]; overnight incubation (FIG. 4)", "result": "blocks production of cytokines"},
      {"measurement": "TLR7/8 activation by LL37-RNA complexes, levels of IL-6", "setting": "TLR7/8 [2]; overnight incubation (FIG. 5)", "result": "the activation is suppressed"},
      {"measurement": "TLR7/8 activation by LL37-RNA complexes, levels of IFNα", "setting": "TLR7/8 [2]; overnight incubation (FIG. 6)", "result": "the activation is suppressed"}
    ]}
  ]
}
